{"source": "paper PMC10298626", "about": "(International Journal of Molecular Sciences, 2023)", "key": {"in vitro": {"assay": "in vitro", "assay_type": "cell-based", "conditions": "mouse, RAW264.7 cells, then LPS (500 ng/mL) 20 h, read-out: Cell viability, Average (%)", "procedure": "To investigate the anti-inflammatory activity of coumarin derivatives, cell viability was analyzed by treating RAW264.7 cells with 23 types of coumarin derivatives at concentrations of 20, 40, and 80 μM for 2 h and with LPS for 20 h.\nMouse macrophage RAW264.7 cells were purchased from the Korea Cell Line Bank (Seoul, Republic of Korea) and cultured in Dulbecco’s Modified Eagle Medium (Corning, NY, USA) containing 10% fetal bovine serum and 1% penicillin/streptomycin at 37 °C and 5% CO2. The medium was changed every 2 days and subcultured when the cells grew > 80%.\nEZ-Cytox cell viability assay kit (Dogen, Suwon, Republic of Korea) was used to measure cell viability according to the manufacturer’s instructions. RAW264.7 cells were seeded into a 96-well plate (1 × 10^5 cells/well) and treated with coumarin derivatives at concentrations of 20, 40, and 80 μM. After 2 h, the cells were treated with LPS (500 ng/mL) and cultured for 24 h in a 37 °C, 5% CO2 incubator. The culture supernatant was treated with 10% EZ-Cytox reagent, and a microplate reader was used to measure the absorbance at 450 nm."}, "iNOS mRNA": {"test_system": "iNOS mRNA", "assay": "iNOS mRNA expression (qRT-PCR) in LPS-stimulated RAW264.7 cells", "assay_type": "cell-based, Mouse", "conditions": "20, 40, and 80 μM; 2 h pretreatment, LPS 500 ng/mL 6 h", "procedure": "RAW264.7 cells were seeded into a 6-well plate (2 × 10^6 cells/well) and cultured for 24 h. The cells were treated with coumarin derivative 2 at 20, 40, and 80 μM and cultured for 2 h and with LPS (500 ng/mL) for 6 h.\nThe cells were washed with phosphate-buffered saline (PBS) and lysed with the RNeasy Mini kit (Qiagen, Hilden, Germany) for RNA isolation. RNA was converted to cDNA using the AccuPower reverse transcriptase Premix Kit (Bioneer, Daejeon, Republic of Korea). A Power SYBR Green PCR Master Mix (Applied Biosystems, Waltham, MN, USA) was used to perform polymerase chain reaction amplification. Amplification conditions were selected within the Quant 3 PCR system (Applied Biosystems). The data were normalized to the amount of glyceraldehyde 3-phosphate dehydrogenase.\nFigure 4 Effect of coumarin derivative 2 on iNOS protein expression in LPS-stimulated RAW264.7 cells. (a) RAW264.7 cells (2.0 × 10^6 cells/6 cm dish) were pretreated with coumarin derivative 2 (20, 40, and 80 μM) for 2 h and incubated with LPS (500 ng/mL) for 20 h. Whole-cell lysates were then immunoblotted with the iNOS specific antibody. […] (c) RAW264.7 cells (2.0 × 10^6 cells/6 cm dish) were pretreated with coumarin derivative 2 (20, 40, and 80 μM) for 2 h and incubated with LPS (500 ng/mL) for 6 h. iNOS mRNA expression levels were measured via a real-time quantitative reverse transcription polymerase chain reaction. […]"}, "iNOS": {"test_system": "iNOS", "assay": "iNOS protein expression (immunoblotting) in LPS-stimulated RAW264.7 cells", "assay_type": "cell-based, Mouse", "conditions": "20, 40, and 80 μM pretreatment 2 h; LPS 500 ng/mL 24 h", "procedure": "(§1) RAW264.7 cells were seeded into 6-well plates (2 × 10^6 cells/well) and incubated for 24 h. The cells were incubated with 20, 40, and 80 μM of coumarin derivative 2 for 2 h, and then LPS (500 ng/mL) was added for 30 min (for phosphorylation of ERK, JNK, p38, and p65) and 24 h (for protein expression of iNOS).\nThe cells were washed with PBS and lysed with radioimmunoprecipitation assay buffer containing 1 mM dithiothreitol (Wako, Tokyo, Japan), phosphatase inhibitor cocktail, 1 mM phenylmethylsulfonylfluoride, 1 mM sodium orthovanadate (Sigma), and 10 mM β-glycerophosphate (Sigma). The extracted proteins were centrifuged at 13,000× g rpm, separated via sodium dodecyl sulfate polyacrylamide gel electrophoresis, and transferred to polyvinylidene fluoride membranes. […] For detection, the antibodies were developed with Super Signal® West Femto Substrate (ThermoFisher, Waltham, MN, USA) and analyzed on a Fusion Solo Chemiluminescence System (Vilber Lourmat, Paris, France) ECL detection system.\nFigure 4 Effect of coumarin derivative 2 on iNOS protein expression in LPS-stimulated RAW264.7 cells. […] (c) RAW264.7 cells (2.0 × 10^6 cells/6 cm dish) were pretreated with coumarin derivative 2 (20, 40, and 80 μM) for 2 h and incubated with LPS (500 ng/mL) for 6 h. iNOS mRNA expression levels were measured via a real-time quantitative reverse transcription polymerase chain reaction. […]"}, "ERK": {"test_system": "ERK", "assay": "LPS-induced phosphorylation of ERK (immunoblotting) in RAW264.7 cells", "assay_type": "cell-based, Mouse", "conditions": "20, 40, and 80 μM pretreatment 2 h; LPS 500 ng/mL 30 min", "procedure": "as §1\n(§2) The cells were washed with PBS and lysed with radioimmunoprecipitation assay buffer containing 1 mM dithiothreitol (Wako, Tokyo, Japan), phosphatase inhibitor cocktail, 1 mM phenylmethylsulfonylfluoride, 1 mM sodium orthovanadate (Sigma), and 10 mM β-glycerophosphate (Sigma). The extracted proteins were centrifuged at 13,000× g rpm, separated via sodium dodecyl sulfate polyacrylamide gel electrophoresis, and transferred to polyvinylidene fluoride membranes. Nonspecific proteins were blocked by adding 5% skim milk. After blocking, primary antibodies were incubated overnight at 4 °C. After washing with the PBS-T buffer, the secondary antibodies were treated at room temperature for 2 h. For detection, the antibodies were developed with Super Signal® West Femto Substrate (ThermoFisher, Waltham, MN, USA) and analyzed on a Fusion Solo Chemiluminescence System (Vilber Lourmat, Paris, France) ECL detection system.\n(§3) Figure 5 Inhibitory effects of coumarin derivative 2 on LPS-induced phosphorylation of MAPKs and NF-κB p65 in RAW264.7 cells. […]"}, "p38": {"test_system": "p38", "assay": "LPS-induced phosphorylation of p38 (immunoblotting) in RAW264.7 cells", "assay_type": "cell-based, Mouse", "conditions": "20, 40, and 80 μM pretreatment 2 h; LPS 500 ng/mL 30 min", "procedure": "as §1, §2, §3"}, "NF-κB p65": {"test_system": "NF-κB p65", "assay": "LPS-induced phosphorylation of NF-κB p65 (immunoblotting) in RAW264.7 cells", "assay_type": "cell-based, Mouse", "conditions": "20, 40, and 80 μM pretreatment 2 h; LPS 500 ng/mL 30 min", "procedure": "as §1, §2, §3"}}}
{"smiles": "N#CC1=C(N)Oc2c(c(=O)oc3ccccc23)C1c1cccc(F)c1", "note": "(centres unmarked) [Coumarin derivative 2]", "values": [{"measurement": "viability at 22 h, 20 μM", "setting": "in vitro; 20 μM for 2 h", "value": 106, "unit": "%"}, {"measurement": "viability at 22 h, 40 μM", "setting": "in vitro; 40 μM for 2 h", "value": 97.1, "unit": "%"}, {"measurement": "viability at 22 h, 80 μM", "setting": "in vitro; 80 μM for 2 h", "value": 101, "unit": "%"}, {"measurement": "iNOS mRNA expression", "setting": "iNOS mRNA", "value": "significantly suppressed"}, {"measurement": "iNOS expression (immunoblot)", "setting": "iNOS", "value": "inhibited"}, {"measurement": "Phosphorylation of ERK", "setting": "ERK", "value": "inhibited"}, {"measurement": "Phosphorylation of p38", "setting": "p38", "value": "inhibited"}, {"measurement": "p65 phosphorylation", "setting": "NF-κB p65", "value": "inhibited"}]}
